In patent US10441648B2, “Mycobacterium antigenic composition” (priority 2010, dated 2019):
Like-named read-outs stand apart in the source and are kept apart here.

Key:
[1] = Conductivity determination (Malvern Zetasizer Nano); assay type: physicochemical
Experimental: A range of standards having sodium chloride concentrations of 0, 75, 100, 150, 250 and 300 mM were prepared from a stock solution of 1500 mM sodium chloride by dilution in water for injection.
Immunogenic compositions were prepared using M72 with two N-terminal His residues according to the procedures provided in Example 8. To investigate the contribution from the antigen itself and any residual materials in the purified bulk, placebo lyophilisation cakes were also prepared by excluding the antigen component.
Using a Malvern Zetasizer Nano and 1.5 ml of each sample in folded capillary cells, a voltage of 30 to 150 V (determined automatically by the instrument) was applied and the conductivity determined.

[2] = system: chicken Red Blood cells (RBC); experiment: QS21 lytic activity, haemolysis assay (limit test); assay type: cell-based
Experimental: QS21 is known to lyse red blood cells (RBC).
QS21 lytic activity was measured by a haemolysis assay using chicken Red Blood cells (RBC). RBC were centrifuged at 550 g at 4° C. Supernatant was discarded. The pellet was carefully resuspended in PBS buffer to reach the initial volume and the same operation was repeated until supernatant was no longer red (generally 3 times). The pellet was stored at 4° C. for 3 to 4 days maximum if not used directly (and washed again the day it is used) or was diluted around 10 times in buffer if used the same day.
A QS21 dose range curve was prepared in ASA buffer (in salt or in sorbitol buffer following the ASA sample tested) extemporaneously and the adjuvant samples (containing a 50 ug or 90 ug equivalent of QS21 meaning the equivalent of 500 ul or 900 ul ASA) were prepared. Final volume was adjusted to 900 ul in standards and samples with adequate buffer (containing or not sorbitol as a function of the buffer of the sample tested). Due to its opalescence, ASA interferes with optical density (OD). ASA “blanks” were thus prepared and their OD was subtracted from the OD of ASA tested samples. Those blanks corresponded to the same ASA volume as the volume tested in samples, but adjusted to 1 ml with buffer. No RBC were added to these blanks. Standards and samples were then incubated with RBC (100 ul of diluted RBC added to 900 ul of standards and samples) for 30 minutes at room temperature (RT). Samples were then centrifuged 5 minutes at 900 g. Optical density at 540 nm was measured after centrifugation.
Determination of lytic activity was carried out by a limit test.
1. Limit of detection (LOD) was defined as the lowest concentration of QS21 leading to an OD: • Higher than the base level (OD>0.1) • Around three times higher than OD's buffer (the “0 ug” QS21) • In the ascendant part of the curve • Determined for each test.
2. QS21 lytic activity was held to be positive in the adjuvant samples if the OD for the adjuvant sample was greater than the ODLOD. […]

[3] = DLS antigen size of M72 at varied pH and NaCl (salting out); assay type: physicochemical
Experimental: Purified bulk antigen (M72 with two N-terminal His residues, SEQ ID No: 3, as prepared in Example 8) was diluted to a concentration of 100 ug/ml in three different buffers (10 mM phosphate buffer at pH 6.1, 20 mM Tris buffer at pH 7.5 and 20 mM Tris buffer at pH 8.5) containing final sodium chloride concentrations of 0, 50, 150, 300 and 450 mM.
Samples were analysed immediately (TO), stored overnight at 4° C. before analysis (T0 O/N) or stored at 25° C. for 24 hours before analysis (T24 h 25° C.).
DLS was performed using a Malvern Zetasizer Nano ZS from Malvern Instruments (UK). The instrument was operated using a laser wavelength of 633 nm and power of 4 mW. Scattered light was detected at 173° at a temperature of 22° C. The Z-average diameter (Zav) and polydispersity index (pi) are calculated by the instrument software.

[4] = DLS and nephelometry of Mtb72f at varied pH and NaCl; assay type: physicochemical; conditions: pH 6.1, 7.5, 8.5; 0, 150, 450 mM sodium chloride; 24 hours at 4° C. or 25° C.
[5] = pH 6.1, even in the absence of sodium chloride
[6] = pH 7.5 or 8.5, over 24 hours at 25° C., particularly 0 or 50 mM sodium chloride
[7] = pH 7.5 or 8.5, sodium chloride increased to 150 mM or greater

Q: Which Conductivity ([1]; sodium chloride standard solution 75 mM in water for injection) does the source give for `[Cl-].[Na+]` [sodium chloride] here?
A: 8.2 mS/cm

Q: And the Conductivity ([1]; sodium chloride standard solution 100 mM)?
A: 10.7 mS/cm

Q: What about the Conductivity ([1]; sodium chloride standard solution 150 mM) of the same molecule?
A: 15.6 mS/cm

Q: What about the Conductivity ([1]; sodium chloride standard solution 250 mM) of the same molecule?
A: 23.9 mS/cm

Q: And the Conductivity ([1]; sodium chloride standard solution 300 mM)?
A: 30.0 mS/cm

Q: For QS21, which OD ([2]; 0.5 ug QS21, 150 mM sodium chloride buffer, optical density at 540 nm, 30 minutes RT with RBC) is on record?
A: 0.052

Q: What about the OD ([2]; 0.6 ug QS21, 150 mM sodium chloride buffer, 540 nm) of the same molecule?
A: 0.073

Q: What about the OD ([2]; 0.7 ug QS21, 150 mM sodium chloride buffer, 540 nm) of the same molecule?
A: 0.091

Q: And the OD ([2]; 0.8 ug QS21, 150 mM sodium chloride buffer, 540 nm)?
A: 0.096

Q: And the OD ([2]; 0.9 ug QS21 (limit of detection), 150 mM sodium chloride buffer, 540 nm)?
A: 0.12

Q: And the OD ([2]; 1 ug QS21, 150 mM sodium chloride buffer, 540 nm)?
A: 0.195

Q: And the OD ([2]; 1.1 ug QS21, 150 mM sodium chloride buffer, 540 nm)?
A: 0.212

Q: And the OD ([2]; 1.2 ug QS21, 150 mM sodium chloride buffer, 540 nm)?
A: 0.348

Q: What about the OD ([2]; 1.3 ug QS21, 150 mM sodium chloride buffer, 540 nm) of the same molecule?
A: 0.479

Q: And the OD ([2]; 1.4 ug QS21, 150 mM sodium chloride buffer, 540 nm)?
A: 0.612

Q: And the OD ([2]; 1.5 ug QS21, 150 mM sodium chloride buffer, 540 nm)?
A: 0.669

Q: And the OD ([2]; 2 ug QS21, 150 mM sodium chloride buffer, 540 nm)?
A: 1.139

Q: What about the OD ([2]; 2.5 ug QS21, 150 mM sodium chloride buffer, 540 nm) of the same molecule?
A: 1.294

Q: And the OD ([2]; 3 ug QS21, 150 mM sodium chloride buffer, 540 nm)?
A: 1.391

Q: What about the OD ([2]; 5 ug QS21, 150 mM sodium chloride buffer, 540 nm) of the same molecule?
A: 1.416

B1: M72: purified bulk antigen, M72 with two N-terminal His residues, SEQ ID No: 3 (protein)
chain: MHHTAASDNFQLSQGGQGFAIPIGQAMAIAGQIRSGGGSPTVHIGPTAFLGLGVVDNNGNGARVQRVVGSAPAASLGISTGDVITAVDGAPINSATAMADALNGHHPGDVISVTWQTKSGGTRTGNVTLAEGPPAEFMVDFGALPPEINSARMYAGPGSASLVAAAQMWDSVASDLFSAASAFQSVVWGLTVGSWIGSSAGLMVAAASPYVAWMSVTAGQAELTAAQVRVAAAAYETAYGLTVPPPVIAENRAELMILIATNLLGQNTPAIAVNEAEYGEMWAQDAAAMFGYAAATATATATLLPFEEAPEMTSAGGLLEQAAAVEEASDTAAANQLMNNVPQALQQLAQPTQGTTPSSKLGGLWKTVSPHRSPISNMVSMANNHMSMTNSGVSMTNTLSSMLKGFAPAAAAQAVQTAAQNGVRAMSSLGSSLGSSGLGGGVAANLGRAASVGSLSVPQAWAAANQAVTPAARALPLTSLTSAAERGPGQMLGGLPVGQMGARAGGGLSGVLRVPPRPYVMPHSPAAGDIAPPALSQDRFADFPALPLDPSAMVAQVGPQVVNINTKLGYNNAVGAGTGIVIDPNGVVLTNNHVIAGATDINAFSVGSGQTYGVDVVGYDRTQDVAVLQLRGAGGLPSAAIGGGVAVGEPVVAMGNSGGQGGTPRAVPGRVVALGQTVQASDSLTGAEETLNGLIQFDAAIQPGDAGGPVVNGLGQVVGMNTAAS
modifications: M72 fusion with 2 additional his residues
Q: Which results are given for B1?
A: antigen size (DLS) ([3]; pH 6.1, 0 mM sodium chloride, T0): 35 nm; antigen size (DLS) ([3]; pH 6.1, 50 mM sodium chloride, T0): 58 nm; antigen size (DLS) ([3]; pH 6.1, 50 mM sodium chloride, after 24 hours at 25° C.): 79 nm; stability of antigen size [3, 5]: not stable; stability of antigen size [3, 6]: relatively stable; change in antigen size [3, 7]: clear increase; stability of antigenicity [5]: not stable; stability of antigenicity [6]: relatively stable; change in antigenicity [7]: reduction

B2: Mtb72f: purified bulk antigen, Mtb72f with 6 his residues, SEQ ID No: 7 (protein)
chain: MHHHHHHTAASDNFQLSQGGQGFAIPIGQAMAIAGQIRSGGGSPTVHIGPTAFLGLGVVDNNGNGARVQRVVGSAPAASLGISTGDVITAVDGAPINSATAMADALNGHHPGDVISVTWQTKSGGTRTGNVTLAEGPPAEFMVDFGALPPEINSARMYAGPGSASLVAAAQMWDSVASDLFSAASAFQSVVWGLTVGSWIGSSAGLMVAAASPYVAWMSVTAGQAELTAAQVRVAAAAYETAYGLTVPPPVIAENRAELMILIATNLLGQNTPAIAVNEAEYGEMWAQDAAAMFGYAAATATATATLLPFEEAPEMTSAGGLLEQAAAVEEASDTAAANQLMNNVPQALQQLAQPTQGTTPSSKLGGLWKTVSPHRSPISNMVSMANNHMSMTNSGVSMTNTLSSMLKGFAPAAAAQAVQTAAQNGVRAMSSLGSSLGSSGLGGGVAANLGRAASVGSLSVPQAWAAANQAVTPAARALPLTSLTSAAERGPGQMLGGLPVGQMGARAGGGLSGVLRVPPRPYVMPHSPAAGDIAPPALSQDRFADFPALPLDPSAMVAQVGPQVVNINTKLGYNNAVGAGTGIVIDPNGVVLTNNHVIAGATDINAFSVGSGQTYGVDVVGYDRTQDVAVLQLRGAGGLPSAAIGGGVAVGEPVVAMGNSGGQGGTPRAVPGRVVALGQTVQASDSLTGAEETLNGLIQFDAAIQPGDSGGPVVNGLGQVVGMNTAAS
modifications: 6 His tag; Mtb72f fusion with 6 additional his residues
Q: For B2, which “sensitivity of size (DLS and nephelometry) to salt and pH” value [4] is on record?
A: sensitive to salt concentration and pH
